Values of other authors, collected in patent US20240033223A1 (SICHUAN CREDIT PHARMACEUTICAL CO., LTD, priority 2020, published 2024).

Settings: aqueous preparation (U.S. Pat. No. 4,925,860)

Solubility in water: water-insoluble
Structure (SMILES): O=C1NC(=O)C(c2ccccc2)(c2ccccc2)N1 [Impurity C, Phenytoin]
